{"source": "patent US7041463B2", "about": "“Orthologues of human receptors and methods of use” (Pharmacopeia Drug Discovery, Inc., priority 2000, dated 2006)", "key": {"cloned rat NK1 receptor": {"biological_target": "cloned rat NK1 receptor (Rattus norvegicus, UniProt P14600)", "sequence (P14600 whole entry)": "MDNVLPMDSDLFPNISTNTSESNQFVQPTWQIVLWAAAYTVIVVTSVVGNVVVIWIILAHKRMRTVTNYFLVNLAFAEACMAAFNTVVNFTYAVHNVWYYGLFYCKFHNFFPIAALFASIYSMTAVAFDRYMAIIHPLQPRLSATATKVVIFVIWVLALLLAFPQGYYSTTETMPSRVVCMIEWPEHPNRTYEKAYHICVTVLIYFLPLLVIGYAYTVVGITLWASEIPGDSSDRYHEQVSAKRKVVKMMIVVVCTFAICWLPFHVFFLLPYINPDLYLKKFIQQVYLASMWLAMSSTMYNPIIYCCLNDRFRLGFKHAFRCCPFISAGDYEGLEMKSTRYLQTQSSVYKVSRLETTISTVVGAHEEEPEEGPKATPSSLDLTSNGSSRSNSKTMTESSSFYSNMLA", "settings": "cited from earlier work"}, "[1]": {"biological_target": "T1, cholecystokinin-B receptor (Homo sapiens, UniProt P32239)", "T1 sequence (P32239 1-447 V349L)": "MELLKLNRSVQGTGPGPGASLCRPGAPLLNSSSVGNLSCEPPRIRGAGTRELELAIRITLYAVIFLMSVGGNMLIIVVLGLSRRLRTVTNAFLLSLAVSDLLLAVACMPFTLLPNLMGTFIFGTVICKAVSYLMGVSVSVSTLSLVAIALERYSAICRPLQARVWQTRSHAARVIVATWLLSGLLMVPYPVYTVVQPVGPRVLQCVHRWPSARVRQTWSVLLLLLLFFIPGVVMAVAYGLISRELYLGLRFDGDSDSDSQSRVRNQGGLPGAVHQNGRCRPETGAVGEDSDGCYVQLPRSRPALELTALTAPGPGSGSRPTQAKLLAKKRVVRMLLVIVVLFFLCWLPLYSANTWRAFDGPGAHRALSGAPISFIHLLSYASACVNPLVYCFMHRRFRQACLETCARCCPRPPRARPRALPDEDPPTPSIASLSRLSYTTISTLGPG", "settings": "human receptor with valine 319 substituted by leucine vs human receptor; cited from earlier work"}, "human B1 receptor": {"biological_target": "T2, human B1 receptor (Homo sapiens, UniProt P46663)", "T2 construct": "expressed in transfected cells; host or cells: 293-EBNA (293E) cells, membranes", "T2 sequence (P46663 1-353)": "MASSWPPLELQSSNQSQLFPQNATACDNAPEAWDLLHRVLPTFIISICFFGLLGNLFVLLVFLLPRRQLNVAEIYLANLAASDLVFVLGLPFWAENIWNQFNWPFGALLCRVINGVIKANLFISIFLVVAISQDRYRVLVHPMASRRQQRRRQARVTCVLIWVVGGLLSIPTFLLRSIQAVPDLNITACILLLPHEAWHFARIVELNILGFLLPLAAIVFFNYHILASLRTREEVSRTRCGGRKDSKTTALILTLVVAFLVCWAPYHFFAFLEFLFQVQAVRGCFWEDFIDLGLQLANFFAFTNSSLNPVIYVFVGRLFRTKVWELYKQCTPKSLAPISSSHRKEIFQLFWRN", "assay": "[3H]-des-Arg10-kallidin binding, 293E membranes, human B1", "settings": "0.6 nM [3H]-dAKd", "excerpt": "Prior to use in a binding assay, a membrane preparation is “calibrated” as described below to determine the amount of membrane preparation to be used. A frozen sample of a membrane preparation is thawed and the preparation diluted in assay buffer to obtain several different concentrations of membranes, for example, 1:5, 1:10, 1:20, 1:40 and so on. The diluted membrane preparation is sonicated in a bath style sonicator for 15 seconds at room temperature. […]"}, "rabbit B1": {"biological_target": "T3, rabbit B1 (Oryctolagus cuniculus, UniProt P48748)", "T3 construct": "expressed in transfected cells; host or cells: 293-EBNA (293E) cells, membranes", "T3 sequence (P48748 1-352)": "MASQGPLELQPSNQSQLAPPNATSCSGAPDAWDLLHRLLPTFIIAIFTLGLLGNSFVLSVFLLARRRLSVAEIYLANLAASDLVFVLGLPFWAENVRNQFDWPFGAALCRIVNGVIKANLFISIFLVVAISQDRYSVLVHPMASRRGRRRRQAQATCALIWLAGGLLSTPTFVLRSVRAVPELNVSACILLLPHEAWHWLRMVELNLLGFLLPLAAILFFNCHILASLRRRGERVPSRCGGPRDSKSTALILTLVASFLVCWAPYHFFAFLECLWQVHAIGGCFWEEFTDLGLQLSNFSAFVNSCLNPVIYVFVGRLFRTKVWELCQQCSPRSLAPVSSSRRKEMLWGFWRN", "assay": "[3H]-des-Arg10-kallidin binding, 293E membranes, rabbit B1", "settings": "0.6 nM [3H]-dAKd", "method": "(§1) Membrane preparations for use in accordance with the methods of the present invention were generated as follows. 293E cells expressing B1 receptors were harvested and pelleted. Cells were washed once with PBS and once with a membrane buffer (for example, 10 mM HEPES pH 7.5, 1 μM phosphoramidon, 3 μM amastatin, 1 μM captopril, 2 μM dithiothreitol (DTT)). Cells were resuspended in membrane buffer and Dounce homogenized on ice 35 times. The membranes were collected by centrifugation at 15,000×g for 30 min. at 4° C. and resuspended in membrane buffer containing 0.2% bovine serum albumin (BSA) at a final concentration of approximately 5×10^7 cell equivalents per ml. Aliquots were flash frozen and stored at −80° C. Frozen aliquots were subsequently thawed, diluted, and sonicated on ice using a Branson Sonifier® 250 (4×5 sec, 40% output).\n(§2) Prior to use in a binding assay, a membrane preparation is “calibrated” as described below to determine the amount of membrane preparation to be used. […]\n(§3) The method of the present invention employs a binding assay such as the one described below. […] 50 μl of scintillation fluid was added to each well and plates were counted in a Wallac Microbeta® TriLux for 10 min. per well."}, "tree shrew B1 receptor": {"biological_target": "tree shrew B1 receptor", "sequence (as listed by the source)": "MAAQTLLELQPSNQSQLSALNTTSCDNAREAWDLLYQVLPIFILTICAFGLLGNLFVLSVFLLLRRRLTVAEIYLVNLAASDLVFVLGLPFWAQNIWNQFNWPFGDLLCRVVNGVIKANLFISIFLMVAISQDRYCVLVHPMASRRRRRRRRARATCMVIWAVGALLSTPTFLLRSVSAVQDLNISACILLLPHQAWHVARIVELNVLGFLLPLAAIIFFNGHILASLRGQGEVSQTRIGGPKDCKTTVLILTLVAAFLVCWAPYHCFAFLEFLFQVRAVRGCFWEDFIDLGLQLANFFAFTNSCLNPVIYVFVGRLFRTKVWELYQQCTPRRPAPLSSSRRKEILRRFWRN", "assay": "[3H]-des-Arg10-kallidin binding, 293E membranes, tree shrew B1", "parameters": "species or system tree shrew (Tupaia minor)", "settings": "0.6 nM [3H]-dAKd", "method": "as §1, §2, §3"}, "dog B1": {"biological_target": "T4, dog B1 (Canis lupus familiaris, UniProt Q9BDQ5, D322E/F324Y/R319K)", "T4 construct": "the chimeric canine/human receptor described above was used in the experiments described below; C-terminal cytoplasmic tail of human bradykinin B1 receptor (fusion partner of the chimera); expressed in transfected cells; host or cells: 293-EBNA (293E) cells, membranes", "T4 sequence (Q9BDQ5 with tags, fused parts or gaps R319K/D322E/F324Y)": "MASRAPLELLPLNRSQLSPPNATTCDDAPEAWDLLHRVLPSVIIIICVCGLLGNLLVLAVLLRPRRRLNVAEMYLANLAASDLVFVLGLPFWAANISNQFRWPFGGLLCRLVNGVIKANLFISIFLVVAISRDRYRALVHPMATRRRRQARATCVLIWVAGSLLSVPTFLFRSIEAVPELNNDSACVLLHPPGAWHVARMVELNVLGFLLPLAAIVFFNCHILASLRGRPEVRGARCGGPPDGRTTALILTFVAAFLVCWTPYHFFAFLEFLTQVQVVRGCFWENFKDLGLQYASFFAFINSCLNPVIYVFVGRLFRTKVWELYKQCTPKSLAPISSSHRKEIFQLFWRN", "assay": "[3H]-des-Arg10-kallidin binding, 293E membranes, dog B1 (canine/human chimera)", "settings": "0.6 nM [3H]-dAKd", "text": "Additionally, a canine/human chimeric bradykinin B1 receptor comprising amino acids 1 to 320 of the canine sequence and amino acids 319–353 of human bradykinin B1 receptor was generated. Any number of chimeric molecules, for example, a chimera comprising amino acids 1–315 of the canine sequence and amino acids 314–353 of the human sequence can be used.\nas §1, with “Frozen aliquots were subsequently thawed, diluted, and sonicated on ice using a Branson Sonifier® 250 (4×5 sec, 40% output).” left out\nas §3"}, "pig B1": {"biological_target": "pig B1", "sequence (as listed by the source)": "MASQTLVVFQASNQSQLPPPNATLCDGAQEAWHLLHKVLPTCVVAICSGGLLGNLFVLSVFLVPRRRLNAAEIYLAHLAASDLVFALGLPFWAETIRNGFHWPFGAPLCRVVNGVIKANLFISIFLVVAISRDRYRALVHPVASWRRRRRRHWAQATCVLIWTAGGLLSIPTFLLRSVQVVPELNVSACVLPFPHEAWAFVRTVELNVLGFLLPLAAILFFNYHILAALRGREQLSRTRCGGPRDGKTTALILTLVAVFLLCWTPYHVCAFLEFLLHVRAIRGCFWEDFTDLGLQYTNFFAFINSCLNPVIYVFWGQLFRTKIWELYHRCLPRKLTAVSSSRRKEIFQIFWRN", "assay": "[3H]-des-Arg10-kallidin binding, 293E membranes, pig B1", "settings": "0.6 nM [3H]-dAKd", "method": "as §1, §2, §3"}, "[2]": {"biological_target": "rhesus macaque B1 receptor", "sequence (as listed by the source)": "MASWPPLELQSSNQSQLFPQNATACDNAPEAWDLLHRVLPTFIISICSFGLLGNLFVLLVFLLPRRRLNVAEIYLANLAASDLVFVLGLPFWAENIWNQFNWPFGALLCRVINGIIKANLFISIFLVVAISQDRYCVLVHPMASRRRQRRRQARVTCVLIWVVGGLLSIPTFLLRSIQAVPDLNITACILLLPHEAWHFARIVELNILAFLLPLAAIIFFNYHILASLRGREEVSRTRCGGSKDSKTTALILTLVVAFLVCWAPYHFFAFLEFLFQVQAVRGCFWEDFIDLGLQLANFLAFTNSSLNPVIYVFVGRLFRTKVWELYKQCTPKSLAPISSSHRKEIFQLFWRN", "assay": "[3H]-des-Arg10-kallidin binding, 293E membranes, rhesus macaque B1", "parameters": "species or system rhesus macaque (Macaca mulatta)", "settings": "0.6 nM [3H]-dAKd", "method": "as §1, §2, §3"}}}
{"compound": "COc1ccccc1CN[C@H]1C2CCN(CC2)[C@H]1C(c1ccccc1)c1ccccc1", "note": "[CP-96,345]", "values": [{"measurement": "IC50", "setting": "cloned rat NK1 receptor", "value": 40, "unit": "nM"}]}
{"compound": "Cc1cccc(NC(=O)N[C@@H]2N=C(c3ccccc3)c3ccccc3N(C)C2=O)c1", "note": "[Compound L365260]", "values": [{"measurement": "decrease of binding affinity", "setting": "[1]", "value": 20, "unit": "fold"}]}
{"compound": "[des-Arg^9]BK (RPPGFSPF) [dABk]", "values": [{"measurement": "affinity (K1) at human B1, in words", "setting": "human B1 receptor", "value": "inactivity"}, {"measurement": "affinity (K1) at rabbit B1, in words", "setting": "rabbit B1", "value": "weak activity"}, {"measurement": "affinity (K1) at tree shrew B1, in words", "setting": "tree shrew B1 receptor", "value": "inactivity"}, {"measurement": "affinity (K1) at dog B1, in words", "setting": "dog B1", "value": "low nM potency"}, {"measurement": "affinity (K1) at pig B1, in words", "setting": "pig B1", "value": "weak activity"}, {"measurement": "affinity (K1) at rhesus macaque B1, in words", "setting": "[2]", "value": "inactivity"}]}
